# Assays:
# Format in all cases: cell-based
# [1] = system: Colleotrichum lagenarium; settings: 63 ppm, 2% aqueous biomalt solution, 405 nm, 7 days after inoculation, Abbot's formula
# [2] = system: Monographella nivalis; settings: 63 ppm
# [3] = system: Phytophthora infestans; settings: 63 ppm, pea juice-based aqueous nutrient medium, 405 nm, 7 days after inoculation, Abbot's formula
# [4] = system: Pseudocercosporella herpotrichoides R-Type; settings: 63 ppm
# [5] = system: Pseudocercosporella herpotrichoides W-Type; settings: 63 ppm
# [6] = system: Pyricularia oryzae; settings: 63 ppm, 2% aqueous biomalt solution, 405 nm, 7 days after inoculation, Abbot's formula
# [7] = system: Pyrenophora teres; settings: 63 ppm
# [8] = system: Rhynchosporium secalis; settings: 63 ppm
# [9] = system: Septoria tritici; settings: 63 ppm
# [10] = system: Colleotrichum truncatum; settings: 63 ppm, 2% aqueous biomalt solution, 405 nm, 7 days after inoculation, Abbot's formula
# [11] = system: Corynespora cassiicola; settings: 63 ppm
# [12] = system: Septoria glycines; settings: 63 ppm
# [13] = system: Leptosphaeria nodorum; settings: 63 ppm
smiles,measurement,setting,value
"CCN/C(=N\Nc1c(Cl)cc(C(F)(F)F)cc1Cl)C1(C)CC1(Cl)Cl (stereo not drawn) [compound I-2, N-Ethyl-2,2-dichloro-1-methylcyclopropane-carboxamide-2-(2,6-dichloro-α,α,α-trifluoro-p-tolyl)hydrazone]",Efficacy,[1],89%
same,Efficacy,[2],100%
same,Efficacy,[3],100%
same,Efficacy,[4],100%
same,Efficacy,[5],100%
same,Efficacy,[6],91%
same,Efficacy,[7],96%
same,Efficacy,[8],100%
same,Efficacy,[9],100%
same,Efficacy,[10],100%
same,Efficacy,[11],100%
same,Efficacy,[12],100%
same,Efficacy,[13],100%
